Measured values reported in US11771659B2, “Treating disease and promoting weight loss by inhibiting the TMA/FMO3/TMAO pathway” (The Cleveland Clinic Foundation, priority 2017, dated 2023).

What was measured:
[1] = system: male leptin deficient ob/ob mice; assay: TMA lyase inhibition in leptin deficient ob/ob mice (Con vs Con+IMC); type: in vivo; conditions: 0.06% IMC in control diet, 16 weeks
From the text: 6-week-old male leptin deficient ob/ob mice were maintained on either control diet (Con) or control diet supplemented with 0.06% TMA lyase inhibitor iodomethyl choline (Con+IMC) for 16 weeks. Results are shown in FIG. 7(F-J): F) Plasma TMA and TMAO levels (uM); G) Body weight (g); H) Food consumption normalized to body weight (g of diet consumed per day per g of body weight); I) Glucose tolerance measured after 12 weeks on diet; and J) Mean oxygen consumption (VO2; ml/kg/hr) measured after 5 weeks on diet; n=6 mice/group.
FIG. 8A-F represents data from HFD model and G-K the Ob/Ob model. FIG. 8A,G. Principal co-ordinate analysis (PCoA) plot of microbiota profiles built from weighted Unifrac distances. Each point represents a single sample from a single mouse. Positions of points in space display dissimilarities in the microbiota, with points further from one another being more dissimilar. FIG. 8B,H. Barplot of cecal microbiota at the phylum level. Each bar represents an individual mouse and each color an individual phyla. FIG. 8C. Relative abundance of Firmicutes, Bacteroidetes and the Firmicutes to Baceteroidetes ratio for mice on HFD with or without IMC. […] Points extending beyond the lines are outliers defined as values greater or less than 1.5 times the interquartile range. […] FIG. 8E,J. Spearman's correlation between Akkermansia muciniphila and TMA/body weight. […]

[2] = system: male C57BL6/J mice on 60% high fat diet; assay: TMA lyase inhibition in high fat diet-fed mice (HFD vs HFD+IMC); type: in vivo; conditions: 0.06% IMC in 60% high fat diet, 6-week-old male C57BL6/J mice
Procedure: 6-week-old male C57BL6/J mice were maintained on either 60% high fat diet (HFD) or HFD supplemented with 0.06% TMA lyase inhibitor iodomethyl choline (HFD+IMC) for weeks. Results are shown in FIG. 7 (A-E): A) Plasma TMA and TMAO levels (uM); B) Body weight (g); C) Food consumption normalized to body weight (g of diet consumed per day per g of body weight); D) Glucose tolerance measured after 12 weeks on diet; and E) Plasma insulin measured following an overnight fast (Fasted) or 4 hours postprandially (Fed); n=4-5 mice/group.
To determine the role of TMA and TMAO on diet-induced obesity, cohorts of 6-week-old male C57BL6/J mice fed HFD and HFD+IMC were supplemented with either 100 mM TMA in the drinking water (K-M) or 0.3% w/w TMAO in the diet (N-P). […] FIGS. 7K-P specifically show: K) Plasma TMA and TMAO levels (uM) after 6 weeks on diet and TMA supplementation; L) Body weight (g) over 12 weeks; M) Glucose tolerance measured after 10 weeks on diet and TMA supplementation; N) Plasma TMA and TMAO levels (uM) after 12 weeks on diet and TMAO supplementation; O) Body weight (g) over 20 weeks; and P) Glucose tolerance measured after 12 weeks on diet and TMAO supplementation. n=8-10 mice per diet group for all studies unless otherwise indicated. […] Statistical significance determined using student's t-test or two-way ANOVA where appropriate. […]

[3] = system: G protein-coupled receptor trace amine-associated receptor 5 (TAAR5); conditions: Li et al., 2013; cited from earlier work

Compound	obesity driven by leptin deficiency [1]	obesity driven by high fat diet [2]	activation/recognition of TAAR5 [3]
C[N+](C)(CI)CCO [IMC, iodomethyl choline]	improves obesity	improves obesity	
CN(C)C [TMA, trimethylamine]			known to activate
C[N+](C)(C)[O-] [TMAO, trimethylamine-N-oxide]			does not recognize
